Experimental data from patent publication US10961231B2, “NTCP inhibitors” (National Institute of Biological Sciences, Beijing, priority 2018, dated 2021).
pIC50: −log10 of the molar value. Where two headings read alike, the source gives them in different places.

Biological target: T1, NTCP (Homo sapiens, UniProt Q14973)
T1 sequence (Q14973 1-349): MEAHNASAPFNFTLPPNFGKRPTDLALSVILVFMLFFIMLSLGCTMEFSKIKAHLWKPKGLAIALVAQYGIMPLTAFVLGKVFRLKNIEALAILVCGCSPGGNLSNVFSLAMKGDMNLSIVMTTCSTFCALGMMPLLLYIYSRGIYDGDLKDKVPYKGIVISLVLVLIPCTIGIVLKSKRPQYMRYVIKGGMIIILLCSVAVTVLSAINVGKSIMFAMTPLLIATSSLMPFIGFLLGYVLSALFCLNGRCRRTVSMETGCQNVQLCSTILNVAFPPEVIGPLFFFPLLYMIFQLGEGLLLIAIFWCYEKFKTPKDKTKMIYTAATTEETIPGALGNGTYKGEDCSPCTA
Assay: [3H]-TCA uptake assay (NTCP inhibition)
Assay type: cell-based
How it was run: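 PTH and HepG2-NTCP cells kept 24 h in PMM to induce NTCP, then exposed 2 h to test compounds or DMSO. Uptake of 1 μM [3H]-taurocholate in Na+ Ringer's buffer (145 mM Na) ran 15 min at 37° C. Cells washed, lysed in 1% Triton X-100, and radioactivity counted by liquid scintillation.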

[1] = given as a range, marked * (asterisk not explained)
[2] = given as a range, assay not given
[3] = given as a range, assay not given, read-out: IC50
[4] = IC50, given as a range, marked * (asterisk not explained)

**Q.** With `CCC1NC(=O)C(C2OC(Sc3cc(OC)cc(OCC4CCOCC4)c3)CC2C)N(C)C(=O)C(C(C)C)N(C)C(=O)C(CC(C)C)N(C)C(=O)C(CC(C)C)N(C)C(=O)C(C)NC(=O)C(C)NC(=O)C(CC(C)C)N(C)C(=O)C(C(C)C)NC(=O)C(CC(C)C)N(C)C(=O)CN(C)C1=O` (stereo not shown) [Compound 66] as the compound, how does the pIC50 [1] read?
**A.** Its pIC50 is 4.00 to 6.00.

**Q.** How did the IC50 [2] turn out when `CCC1NC(=O)C(C2OC(Sc3cccc(OCc4ccccc4F)c3)CC2C)N(C)C(=O)C(C(C)C)N(C)C(=O)C(CC(C)C)N(C)C(=O)C(CC(C)C)N(C)C(=O)C(C)NC(=O)C(C)NC(=O)C(CC(C)C)N(C)C(=O)C(C(C)C)NC(=O)C(CC(C)C)N(C)C(=O)CN(C)C1=O` [Compound 19A, [2-((2R,3R)-5-(3-(2-fluorobenzyloxy)phenylthio)-3-methyltetrahydrofuran-2-yl)-2-(methylamino)acetic acid]^1-cyclosporin A] was run?
**A.** The IC50 was 1 to 1000 nM.

**Q.** How did the pIC50 [3] turn out when `CC[C@@H]1NC(=O)[C@H]([C@@H]2OC(Sc3cccc(OCc4ccc(-n5cccn5)cc4)c3)C[C@H]2C)N(C)C(=O)[C@H](C(C)C)N(C)C(=O)[C@H](CC(C)C)N(C)C(=O)[C@H](CC(C)C)N(C)C(=O)[C@@H](C)NC(=O)[C@H](C)NC(=O)[C@H](CC(C)C)N(C)C(=O)[C@H](C(C)C)NC(=O)[C@H](CC(C)C)N(C)C(=O)CN(C)C1=O` (stereo partly drawn) [Compound 17A, [2-((2R,3R)-5-(3-(4-(1H-pyrazol-1-yl)benzyloxy)phenylthio)-3-methyltetrahydrofuran-2-yl)-2-(methylamino)acetic acid]^1-cyclosporin A] was run?
**A.** Its pIC50 is 6.00 to 9.00.

**Q.** Which IC50 [2] does the source give for `CCC1NC(=O)C(C2OC(OCc3c(Cl)cccc3Cl)CC2C)N(C)C(=O)C(C(C)C)N(C)C(=O)C(CC(C)C)N(C)C(=O)C(CC(C)C)N(C)C(=O)C(C)NC(=O)C(C)NC(=O)C(CC(C)C)N(C)C(=O)C(C(C)C)NC(=O)C(CC(C)C)N(C)C(=O)CN(C)C1=O` (single isomer, unassigned) [Compound 90B] here?
**A.** Its IC50 is 1 to 1000 nM.

**Q.** With `CCC1NC(=O)C(C2OC(Sc3cc(Cl)cc(OCc4ccc(F)cc4)c3)CC2C)N(C)C(=O)C(C(C)C)N(C)C(=O)C(CC(C)C)N(C)C(=O)C(CC(C)C)N(C)C(=O)C(C)NC(=O)C(C)NC(=O)C(CC(C)C)N(C)C(=O)C(C(C)C)NC(=O)C(CC(C)C)N(C)C(=O)CN(C)C1=O` [Compound 61A, [2-((2R,3R)-5-(3-chloro-5-(4-fluorobenzyloxy)phenylthio)-3-methyltetrahydrofuran-2-yl)-2-(methylamino)acetic acid] 1-cyclosporin A] as the compound, how does the pIC50 [3] read?
**A.** The pIC50 was 6.00 to 9.00.

**Q.** `CCC1NC(=O)C(C2OC(Oc3ccc(Cl)c(OCC4CCOCC4)c3)CC2C)N(C)C(=O)C(C(C)C)N(C)C(=O)C(CC(C)C)N(C)C(=O)C(CC(C)C)N(C)C(=O)C(C)NC(=O)C(C)NC(=O)C(CC(C)C)N(C)C(=O)C(C(C)C)NC(=O)C(CC(C)C)N(C)C(=O)CN(C)C1=O` (stereo not shown) [Compound 43A-o] was tested. Which pIC50 [4] did it give?
**A.** Its pIC50 is 4.00 to 6.00.

**Q.** `CCC1NC(=O)C(C2OC(Sc3ccc(C4CCCCC4)cc3)CC2C)N(C)C(=O)C(C(C)C)N(C)C(=O)C(CC(C)C)N(C)C(=O)C(CC(C)C)N(C)C(=O)C(C)NC(=O)C(C)NC(=O)C(CC(C)C)N(C)C(=O)C(C(C)C)NC(=O)C(CC(C)C)N(C)C(=O)CN(C)C1=O` [Compound 9A, [2-((2R,3R)-5-(4-cyclohexylphenylthio)-3-methyltetrahydrofuran-2-yl)-2-(methylamino)acetic acid]^1-cyclosporin A] was tested. Which IC50 [2] did it give?
**A.** The IC50 was 1000 to 1e+06 nM.

**Q.** How did the pIC50 [4] turn out when `CCOc1cc(OC2CC(C)C(C3C(=O)NC(CC)C(=O)N(C)CC(=O)N(C)C(CC(C)C)C(=O)NC(C(C)C)C(=O)N(C)C(CC(C)C)C(=O)NC(C)C(=O)NC(C)C(=O)N(C)C(CC(C)C)C(=O)N(C)C(CC(C)C)C(=O)N(C)C(C(C)C)C(=O)N3C)O2)ccc1Cl` (stereo not shown) [Compound 41A-o] was run?
**A.** Its pIC50 is 4.00 to 6.00.

**Q.** `CCC1NC(=O)C(C2OC(OC(C)c3ccccc3)CC2C)N(C)C(=O)C(C(C)C)N(C)C(=O)C(CC(C)C)N(C)C(=O)C(CC(C)C)N(C)C(=O)C(C)NC(=O)C(C)NC(=O)C(CC(C)C)N(C)C(=O)C(C(C)C)NC(=O)C(CC(C)C)N(C)C(=O)CN(C)C1=O` (single isomer, unassigned) [Compound 78A] was tested. Which IC50 [2] did it give?
**A.** Its IC50 is 1 to 1000 nM.

**Q.** How did the pIC50 [4] turn out when `CCC1NC(=O)C(C2OC(Oc3cccc(OC)c3)CC2C)N(C)C(=O)C(C(C)C)N(C)C(=O)C(CC(C)C)N(C)C(=O)C(CC(C)C)N(C)C(=O)C(C)NC(=O)C(C)NC(=O)C(CC(C)C)N(C)C(=O)C(C(C)C)NC(=O)C(CC(C)C)N(C)C(=O)CN(C)C1=O` (stereo not shown) [Compound 28A-o] was run?
**A.** Its pIC50 is 4.00 to 6.00.

**Q.** For `CCC1NC(=O)C(C2OC(Sc3cccc(O)c3)CC2C)N(C)C(=O)C(C(C)C)N(C)C(=O)C(CC(C)C)N(C)C(=O)C(CC(C)C)N(C)C(=O)C(C)NC(=O)C(C)NC(=O)C(CC(C)C)N(C)C(=O)C(C(C)C)NC(=O)C(CC(C)C)N(C)C(=O)CN(C)C1=O` [Compound 25A, [2-((2R,3R)-5-(3-hydroxyphenylthio)-3-methyltetrahydrofuran-2-yl)-2-(methylamino)acetic acid]^1-cyclosporine A], which IC50 [2] is on record?
**A.** The IC50 was 1 to 1000 nM.

**Q.** `CCC1NC(=O)C(C2OC(Sc3cccc(N(C)CC)c3)CC2C)N(C)C(=O)C(C(C)C)N(C)C(=O)C(CC(C)C)N(C)C(=O)C(CC(C)C)N(C)C(=O)C(C)NC(=O)C(C)NC(=O)C(CC(C)C)N(C)C(=O)C(C(C)C)NC(=O)C(CC(C)C)N(C)C(=O)CN(C)C1=O` [Compound 49A, [2-((2R,3R)-5-(3-(ethyl(methyl)amino)phenylthio)-3-methyltetrahydrofuran-2-yl)-2-(methylamino)acetic acid]^1-cyclosporin A] was tested. Which IC50 [2] did it give?
**A.** The IC50 was 1 to 1000 nM.

**Q.** With `CCC1NC(=O)C(C2OC(SCc3cccc(S(=O)(=O)NCC(C)C)c3)CC2C)N(C)C(=O)C(C(C)C)N(C)C(=O)C(CC(C)C)N(C)C(=O)C(CC(C)C)N(C)C(=O)C(C)NC(=O)C(C)NC(=O)C(CC(C)C)N(C)C(=O)C(C(C)C)NC(=O)C(CC(C)C)N(C)C(=O)CN(C)C1=O` (stereo not shown) [Compound 76A-s] as the compound, how does the pIC50 [4] read?
**A.** The pIC50 was 4.00 to 6.00.

**Q.** With `CCC1NC(=O)C(C2OC(OCc3ccc(N4CCOCC4)cc3)CC2C)N(C)C(=O)C(C(C)C)N(C)C(=O)C(CC(C)C)N(C)C(=O)C(CC(C)C)N(C)C(=O)C(C)NC(=O)C(C)NC(=O)C(CC(C)C)N(C)C(=O)C(C(C)C)NC(=O)C(CC(C)C)N(C)C(=O)CN(C)C1=O` [99A + B(1:1.1), [2-((2R,3R)-3-methyl-5-(4-morpholinobenzyloxy)tetrahydrofuran-2-yl)-2-(methylamino)acetic acid]^1-cyclosporin A] as the compound, how does the IC50 [2] read?
**A.** The IC50 was 1 to 1000 nM.

**Q.** `CCC1NC(=O)C(C2OC(OCc3cc(F)c(Cl)cc3Cl)CC2C)N(C)C(=O)C(C(C)C)N(C)C(=O)C(CC(C)C)N(C)C(=O)C(CC(C)C)N(C)C(=O)C(C)NC(=O)C(C)NC(=O)C(CC(C)C)N(C)C(=O)C(C(C)C)NC(=O)C(CC(C)C)N(C)C(=O)CN(C)C1=O` (single isomer, unassigned) [Compound 101B] was tested. Which IC50 [2] did it give?
**A.** The IC50 was 1 to 1000 nM.

**Q.** With `CCC1NC(=O)C(C2OC(Sc3ccc(OC)c(OCc4ccccc4)c3)CC2C)N(C)C(=O)C(C(C)C)N(C)C(=O)C(CC(C)C)N(C)C(=O)C(CC(C)C)N(C)C(=O)C(C)NC(=O)C(C)NC(=O)C(CC(C)C)N(C)C(=O)C(C(C)C)NC(=O)C(CC(C)C)N(C)C(=O)CN(C)C1=O` (stereo not shown) [Compound 64] as the compound, how does the pIC50 [1] read?
**A.** The pIC50 was 4.00 to 6.00.

**Q.** How did the IC50 [2] turn out when `CCC1NC(=O)C(C2OC(Sc3cccc(OCc4ccc5ccc(=O)oc5c4)c3)CC2C)N(C)C(=O)C(C(C)C)N(C)C(=O)C(CC(C)C)N(C)C(=O)C(CC(C)C)N(C)C(=O)C(C)NC(=O)C(C)NC(=O)C(CC(C)C)N(C)C(=O)C(C(C)C)NC(=O)C(CC(C)C)N(C)C(=O)CN(C)C1=O` [Compound 58A, [2-((2R,3R)-3-methyl-5-(3-((2-oxo-2H-chromen-7-yl)methoxy)phenylthio)tetrahydrofuran-2-yl)-2-(methylamino)acetic acid]^1-cyclosporin A] was run?
**A.** The IC50 was 1 to 1000 nM.

**Q.** For `CCC1NC(=O)C(C2OC(Sc3ccc(SCCCS(=O)(=O)O)cc3)CC2C)N(C)C(=O)C(C(C)C)N(C)C(=O)C(CC(C)C)N(C)C(=O)C(CC(C)C)N(C)C(=O)C(C)NC(=O)C(C)NC(=O)C(CC(C)C)N(C)C(=O)C(C(C)C)NC(=O)C(CC(C)C)N(C)C(=O)CN(C)C1=O` [Compound 10A, [2-((2R,3R)-3-methyl-5-(4-(3-sulfopropylthio)phenylthio)tetrahydrofuran-2-yl)-2-(methylamino)acetic acid]^1-cyclosporin A], which IC50 [2] is on record?
**A.** Its IC50 is 1000 to 1e+06 nM.

**Q.** `CCC1NC(=O)C(C2OC(Oc3cccc(OCc4ccc(F)cc4C)c3)CC2C)N(C)C(=O)C(C(C)C)N(C)C(=O)C(CC(C)C)N(C)C(=O)C(CC(C)C)N(C)C(=O)C(C)NC(=O)C(C)NC(=O)C(CC(C)C)N(C)C(=O)C(C(C)C)NC(=O)C(CC(C)C)N(C)C(=O)CN(C)C1=O` (stereo not shown) [Compound 24A-o] was tested. Which pIC50 [1] did it give?
**A.** Its pIC50 is 4.00 to 6.00.

**Q.** How did the pIC50 [4] turn out when `CCC1NC(=O)C(C2OC(SCc3cc(Cl)cc(Cl)c3)CC2C)N(C)C(=O)C(C(C)C)N(C)C(=O)C(CC(C)C)N(C)C(=O)C(CC(C)C)N(C)C(=O)C(C)NC(=O)C(C)NC(=O)C(CC(C)C)N(C)C(=O)C(C(C)C)NC(=O)C(CC(C)C)N(C)C(=O)CN(C)C1=O` (stereo not shown) [Compound 91B-s] was run?
**A.** The pIC50 was 4.00 to 6.00.

**Q.** With `CCC1NC(=O)C(C2OC(Oc3cccc(OCc4ccc5ccc(=O)oc5c4)c3)CC2C)N(C)C(=O)C(C(C)C)N(C)C(=O)C(CC(C)C)N(C)C(=O)C(CC(C)C)N(C)C(=O)C(C)NC(=O)C(C)NC(=O)C(CC(C)C)N(C)C(=O)C(C(C)C)NC(=O)C(CC(C)C)N(C)C(=O)CN(C)C1=O` (stereo not shown) [Compound 58A-o] as the compound, how does the pIC50 [1] read?
**A.** The pIC50 was 4.00 to 6.00.

**Q.** With `CCC1NC(=O)C(C2OC(OCc3ccccc3)CC2C)N(C)C(=O)C(C(C)C)N(C)C(=O)C(CC(C)C)N(C)C(=O)C(CC(C)C)N(C)C(=O)C(C)NC(=O)C(C)NC(=O)C(CC(C)C)N(C)C(=O)C(C(C)C)NC(=O)C(CC(C)C)N(C)C(=O)CN(C)C1=O` [Compound 74A, [2-((2R,3R)-5-(benzyloxy)-3-methyltetrahydrofuran-2-yl)-2-(methylamino)acetic acid]^1-cyclosporin A] as the compound, how does the IC50 [2] read?
**A.** Its IC50 is 1 to 1000 nM.
